Literature values in publication PMC8198792, “Prediction of Anticancer Peptides with High Efficacy and Low Toxicity by Hybrid Model Based on 3D Structure of Peptides” (International Journal of Molecular Sciences, 2021).
Where two headings read alike, the source gives them in different places.

System: cancer cell lines
Design: method as in 6 sources, ref CancerPPD [45] and SATPdb ||| ref CancerPPD/SATPdb ||| ref CancerPPD, SATPdb, Swissprot (PDB) ||| ref CancerPPD/SATPdb/Swissprot(PDB) ||| ref CancerPPD / SATPdb ||| ...
Details: cited from earlier work
Description: Supplement ijms-22-05630-s001.zip/ACPs(seguence).xlsx, sheet "D1" | column: Activity || Supplement ijms-22-05630-s001.zip/ACPs(seguence).xlsx, sheet "D2" | column: Activity || Supplement ijms-22-05630-s001.zip/ACPs(seguence).xlsx, sheet "D3" | column: Activity || (+ 2 further places)

[1] = ACPs dataset D1, label 1 = ACP, 0 = non-ACP (non-anticancer AMPs from SATPdb), ref CancerPPD/SATPdb
[2] = ACPs dataset D4 (sheet "D4"), label 1 = ACP (CancerPPD ID), 0 = non-ACP (non-anticancer AMP, SATPdb ID), ref CancerPPD [45] and SATPdb
[3] = ACPs dataset D1, 1 = ACP (positive), 0 = non-ACP (negative), label taken from databases, ref CancerPPD [45] and SATPdb
[4] = ACPs dataset D3 (sheet "D3"), label 1 = ACP, 0 = non-ACP, ref CancerPPD/SATPdb
[5] = ACPs dataset D4 (sheet "D4"), label 1 = ACP, 0 = non-ACP, ref CancerPPD / SATPdb
[6] = ACPs dataset D5, sheet "D5", label 1 = ACP, 0 = non-ACP, ref CancerPPD [45] and SATPdb
[7] = ACPs dataset D3 (supplement sheet "D3"), 1 = ACP, 0 = non-ACP, ref CancerPPD [45] and SATPdb
[8] = ACPs dataset D5 (sheet "D5"), label 1 = ACP (positive set), 0 = non-ACP (negative set), ref CancerPPD [45] and SATPdb
[9] = ACPs dataset D4 (sheet "D4"), label 1 = ACP, experimentally validated ACPs, ref CancerPPD [45] and SATPdb
[10] = ACPs dataset D5 (sheet "D5"), label 1 = ACP (positive set), sequences with CancerPPD/SATPdb ID, ref CancerPPD, SATPdb
[11] = ACPs dataset sheet D2, 1 = ACP (CancerPPD/SATPdb ID), 0 = non-ACP (Swissprot/PDB ID), ref CancerPPD, SATPdb, Swissprot (PDB)
[12] = ACPs dataset D2 (supplement ACPs(seguence).xlsx, sheet D2), dataset label 1/0 (ACP / non-ACP), entries identified by Swissprot(PDB ID), ref CancerPPD/SATPdb/Swissprot(PDB)

Substance	Activity [2]	Activity [3]	Activity [9]	Activity [10]	Activity [11]	also measured
FLPKTLRKFFCRIRGGRCAVLNCLGKEEQIGRCSNSGRKCCRKKK [satpdb12338]	0					Activity [1]: 0
GWIRDFGKRIERVGQHTRDATIQTIAVAQQAANVAATLKG [satpdb12541]	0					Activity [1]: 0
HRHQGPIFDTRPSPFNPNQPRPGPIY [satpdb10283]	0	0				
GLPRKILAAIAKKK [satpdb14133]						Activity [4]: 0; Activity [5]: 0; Activity [6]: 0
KWKLFKKIGIGKFLHSATTF [compound 1188]	1					Activity [7]: 1; Activity [8]: 1
TSWSPCSASCGGGHYQRTR [satpdb16504]		1	1	1	1	
GLPTCGETCTLGTCYVPDCSCSWPICMKN [compound 4381]		1	1	1	1	
GIINTLQKYYSRVRGGRSAVLSSLPKEEQIGKSSTRGRKSSRRKK [satpdb11018]	0	0				
LCNERPSQTWSGNCGNTAHCDKQCQDWEKASHGACHKRENHWKCFCYFNC [1BK8 NMR - A 1-50]						Activity [12]: 0; Activity [8]: 0
VRRFPWWWAFLRR [satpdb11783]						Activity [7]: 0; Activity [5]: 0; Activity [6]: 0
GLFDVIAKVASVIKKL [compound 4093]	1					Activity [7]: 1; Activity [8]: 1
GLMDTIKGVAKTVAASWLDKLKCKITGC [compound 4362]		1	1	1	1	
THRPPMWSPVWPGGGKLlLKlLkkLLKlLKKK [compound 4603]	1					Activity [7]: 1; Activity [8]: 1
DRSTREPIYMSTI [satpdb20500]		1	1	1	1	
TEWSVCNSRCGRGYQKRTR [satpdb19902]		1	1	1	1	
ISDYSIAMDKIRQQDFVNWLLAQKGKKSDWKHNITQ [satpdb11921]	0					Activity [1]: 0
FLPAIVGAAAKFLPKIFCAISKKC [compound 4356]		1	1	1	1	
GKWKSLLKHILK [compound 3653]	1					Activity [7]: 1; Activity [8]: 1
ALWKTLLKKVLKA [satpdb10405]						Activity [7]: 0
MFSPILSLEIILALATLQSVFAQPVICTTVGSAAEGS [satpdb11835]		1	1	1	1	

Substance	Activity [2]	Activity [3]	Activity [9]	Activity [10]	Activity [11]	also measured
SSTSPHRPRFS [satpdb14979]		1	1	1	1	
GIPCAESCVWIPCTVTALLGCSCSNKVCYN [satpdb12637]	0					Activity [1]: 0
PPPEE [compound 1426]	1					Activity [7]: 1; Activity [8]: 1
KRFKKFFKKLKNSVKKRVKKFFRKPRVIGVTFPF [satpdb10654]	0	0				
PGLKGKRGDSGSPATWTTRG [satpdb10562]		1	1	1	1	
MESQSNAVQLMLGFGTFVLMLLGLVVELIKNSNKK [satpdb12625]	0					Activity [1]: 0
MVAYWRQAGLSYIRYSQICAKAVRDALKTEFKANAMKTSGSTIKIVKVKKE [2W6J X-ray 3.84,I,1-51]						Activity [12]: 0; Activity [6]: 0
PRFWEYWLRLAE [compound 4587]		1	1	1	1	
KWKSFLKTFKSlKKTVLHTlLKAISS [compound 3756]	1					Activity [7]: 1; Activity [8]: 1
RCTCTTIISSSSTF [satpdb11144]	0	0				
FIHHIFRGIVHAGRSIGRFLTG [2MCW NMR - A 1-22]					0	Activity [8]: 0
YGRKKRRQRRRREADFFWSLCTADMS [compound 3718]		1	1	1	1	
RRPKGRGKRRREKQRPDAVPRR [satpdb18651]		1	1	1	1	
GLFDIVKKVVGTLAGL [compound 4409]		1	1	1	1	
LCYCRRRFCGCV [satpdb12860]						Activity [1]: 0; Activity [5]: 0
KVKVKVKVpPTKVKVKVK [compound 3218]	1					Activity [7]: 1; Activity [8]: 1
RLYRRLYRRLYRRLYRRLYRRLYRRLYRRLYRKKKKKKK [satpdb14208]						Activity [4]: 0; Activity [5]: 0; Activity [6]: 0
KCGHKHQCAVHN [satpdb17767]		1	1	1	1	
PEWFKCRRWQWRMKKLGA [compound 1604]		1	1	1	1	
GRLKRLRKKLKKLLKKLS [satpdb12346]						Activity [4]: 0; Activity [5]: 0; Activity [6]: 0

Substance	Activity [2]	Activity [3]	Activity [9]	Activity [10]	Activity [11]	also measured
rrrrrrrrGEDIIRNIARHAAQVGASMDR [compound 4239]	1					Activity [7]: 1; Activity [8]: 1
GLFSKFVGKGIKNFLIKGVKHIGKEVGMDVIRVGIDVAGCKIKGVC [satpdb10682]	0	0				
VVKCSYRLGSPDSQCN [satpdb13432]						Activity [1]: 0; Activity [5]: 0
NVLLSPLSVATALSALSLGAEQRTES [satpdb18073]		1	1	1	1	
KIKLFKKWPKFLHLAKKF [satpdb14419]						Activity [4]: 0; Activity [5]: 0; Activity [6]: 0
MLELLKSLVFAVIMVPVVMAIILGLIYGLGEVFNIFSGVGKKDQPGQNH [4C48 X-ray 3.30,C,1-49]						Activity [12]: 0; Activity [8]: 0
GILDSFKQFAKGVGKDLIKGAAQGVLSTMSCKLAKTC [satpdb11305]	0	0				
GILGKLWEGFKSIV [satpdb13792]						Activity [4]: 0; Activity [5]: 0; Activity [6]: 0
TITLSTCAILSKPLGNNGYLCTVTKECMPSSCN [satpdb12698]	0					Activity [1]: 0
GLLGPLLKIAKKVGSNLL [satpdb10622]						Activity [7]: 0; Activity [5]: 0; Activity [6]: 0
AAPFLECQGRQGTCHFFAN [satpdb18859]		1	1	1	1	
HFLLTKVNLAKKIL [satpdb11375]						Activity [7]: 0; Activity [5]: 0; Activity [6]: 0
ECRRLCYKQRCVTYCRGR [compound 4435]		1	1	1	1	
ACYCRIPACLAGERRYGTCFYMGRVWAFCC [satpdb12594]	0					Activity [1]: 0
FLGGLMKAFPAIICAVTKKC [satpdb13214]						Activity [1]: 0; Activity [5]: 0
DIEDFYTSETCPYKNDSQLAWDTCSGGTGNCGTVCCGQCFSFPVSQSCAGMADSNDCPNA [2NSW NMR - A 1-60]						Activity [12]: 0; Activity [6]: 0
GKIPVKAIKKAGAAIGKGLRAINIASTAHDVYSFFKPKHKKK [satpdb13363]						Activity [1]: 0; Activity [5]: 0
INGSLDKRVQDCYHG [satpdb28376]		1	1	1	1	
FFPIVGKLLFGLL [satpdb13027]						Activity [4]: 0; Activity [5]: 0; Activity [6]: 0
FLPFIARLAAKVFPSIICSVTKKC [satpdb10560]	0	0				
